Measured values: patent US20200172483A1, “HETEROCYCLIC SMALL MOLECULE MODULATORS OF HUMAN STING” (Curadev Pharma Limited, priority 2017, published 2020)

Legend:
WT/R232 STING protein = molecular target: T1, WT/R232 STING protein (Homo sapiens, UniProt Q86WV6, H232R); test: Luciferase reporter assay in HEK293T-hSTING-Luciferase cells (R232); assay type: cell-based; conditions: 20 hr stimulation, EC50 range
T1 construct: host or cells: HEK293T
In short: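 Clonal HEK293T cells stably expressing human STING R232 plus an ISRE/ISG54-driven secreted luciferase reporter, stimulated with compounds for 20 hr. Luciferase in supernatant read by luminescence; activity given as fold-induction over baseline.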

hSTING (H232) = molecular target: T2, hSTING (H232) (Homo sapiens, UniProt Q86WV6); test: Luciferase reporter assay in HEK293T-hSTING-Luciferase cells (H232/REF polymorph); assay type: cell-based; conditions: EC50 range
T2 construct: host or cells: HEK293T
Text: (§1) • a) Stable STING expressing cells—Stable HEK293T STING-expressing cell lines were generated using plasmids purchased from Invivogen, CA, USA, that contain STING cDNA cloned into the pUNO-1 vector under hEF1-HTLV promoter and containing the Blasticidin selection cassette. The plasmids hSTING (R232), hSTING (H232), hSTING (HAQ) were directly procured from Invivogen while hSTING (AQ) and hSTING (Q) were derived from hSTING (HAQ) and hSTING (R232) plasmids respectively by using a PCR based site directed mutagenesis method. These vectors were individually transfected into HEK293T cells using Lipofectamine (Invitrogen) and transfected cells were selected under Blasticidin selection. These transfected cells were further subjected to clonal selection using the limiting dilution method to obtain clonally pure populations of HEK cells transfected with each of the above mentioned human STING variants. Only those clones were selected in which ligand independent activation of STING was minimal. • b) Stable Luciferase reporter gene expressing cells—Stable HEK293T Luciferase reporter gene expressing cell lines were generated using pCDNA4 plasmids under an IRF-inducible promoter. This promoter is comprised of five tandem interferon-stimulated response elements (ISRE) fused to an ISG54 minimal promoter. This vector was transfected into HEK293T cells using Lipofectamine (Invitrogen) and transfected cells were selected under Zeocin selection. These transfected cells were further subjected to clonal selection using the limiting dilution method to obtain clonally pure populations of HEK cells transfected the Luciferase reporter construct. Only those clones were selected in which ligand independent induction of luciferase was minimal.
(§2) 5×10^5 clonally selected HEK293T-hSTING-Luciferase cells were seeded in 384-well plates in growth medium and stimulated with novel compounds. After 20 hr of stimulation supernatant were removed and secretary reporter gene activity were measured using the Quanti-Luc detection system (Invivogen) on a Spectramax i3X luminometer.
(§3) The 5 major polymorphisms of human STING are shown in FIG. 1, with their prevalence in human populations indicated.

hSTING (HAQ) = molecular target: T3, hSTING (HAQ) (Homo sapiens, UniProt Q86WV6, G230A/H232R/R293Q/R71H); test: Luciferase reporter assay in HEK293T-hSTING-Luciferase cells (HAQ polymorph); assay type: cell-based; conditions: EC50 range
T3 construct: host or cells: HEK293T
Text: as §1, §2, §3

IRF pathway = test: Reporter gene expression assay for IRF axis in THP1-Dual cells (secreted Lucia luciferase); assay type: cell-based, human; conditions: Homo sapiens, THP1-Dual, 20 h, 20 hr stimulation, QUANTI-Luc, EC50 range, read-out: THP-IRF activity
In short: (§4)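 THP1-Dual cells (THP-1 monocytes with inducible NF-κB-SEAP and IRF-Lucia reporters; 5×10^5 cells) were stimulated with compounds for 20 hr. Secreted SEAP (QUANTI-Blue) and Lucia luciferase (QUANTI-Luc) were then measured in the supernatant. EC50 values are reported as ranges.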

NF-κB pathway = test: Reporter gene expression assay for NFκB axis in THP1-Dual cells (secreted SEAP); assay type: cell-based, human; conditions: Homo sapiens, THP1-Dual, 20 h, 20 hr stimulation, QUANTI-Blue SEAP, EC50 range, read-out: THP-NFKB activity
In short: as §4

T3 sequence (Q86WV6 whole entry R71H/G230A/H232R/R293Q): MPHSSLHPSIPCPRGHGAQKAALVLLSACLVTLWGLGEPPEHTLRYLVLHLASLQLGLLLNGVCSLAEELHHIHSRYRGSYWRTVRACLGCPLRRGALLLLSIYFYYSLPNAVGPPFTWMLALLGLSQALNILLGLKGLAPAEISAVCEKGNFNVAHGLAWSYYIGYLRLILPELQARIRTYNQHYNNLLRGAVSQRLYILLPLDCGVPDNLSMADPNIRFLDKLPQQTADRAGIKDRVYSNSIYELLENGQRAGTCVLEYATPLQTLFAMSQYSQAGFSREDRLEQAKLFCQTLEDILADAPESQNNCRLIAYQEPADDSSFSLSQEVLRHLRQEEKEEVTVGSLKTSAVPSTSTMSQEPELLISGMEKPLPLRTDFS
T1 sequence (Q86WV6 whole entry H232R): as the sequence (Q86WV6 whole entry R71H/G230A/H232R/R293Q) above, with H71R, A230G, Q293R counted along it
T2 sequence (Q86WV6 whole entry): as the sequence (Q86WV6 whole entry R71H/G230A/H232R/R293Q) above, with H71R, A230G, R232H, Q293R counted along it

| SMILES | EC50 (WT/R232 STING protein) [nM] | EC50 (hSTING (H232)) [nM] | EC50 (hSTING (HAQ)) [nM] | EC50 (IRF pathway) [µM] | EC50 (NF-κB pathway) [µM] |
| --- | --- | --- | --- | --- | --- |
| CC1(C#N)C(=O)N(Cc2cc(F)cc(F)c2)c2cc(C(=O)NCc3cc4ccccc4o3)ccc21 (stereo not drawn) [Example 92, N-(benzofuran-2-ylmethyl)-3-cyano-1-(3,5-difluorobenzyl)-3-methyl-2-oxoindoline-6-carboxamide] | 1000 to 10000 | 1000 to 10000 | 1000 to 10000 | > 10 | > 10 |
| CC1(C)C(=O)N(Cc2noc3ncccc23)c2cc(C(=O)NCc3c(F)cc(F)cc3F)ccc21 [Example 97, 1-(isoxazolo[5,4-b]pyridin-3-ylmethyl)-3,3-dimethyl-2-oxo-N-(2,4,6-trifluorobenzyl)indoline-6-carboxamide] | ≤ 1000 | 1000 to 10000 | 1000 to 10000 | > 10 | > 10 |
| CC1(C)C(=O)N(Cc2noc3ccccc23)c2cc(C(=O)NCc3c(F)cc(F)cc3F)ccc21 [Example 98, 1-(benzo[d]isoxazol-3-ylmethyl)-3,3-dimethyl-2-oxo-N-(2,4,6-trifluorobenzyl)indoline-6-carboxamide] | ≤ 1000 | ≤ 1000 | 1000 to 10000 | > 10 | > 10 |
| CC1(C)C(=O)N(Cc2coc3ccccc23)c2cc(C(=O)NCc3c(F)cc(F)cc3F)ccc21 [Example 100, 1-(benzofuran-3-ylmethyl)-3,3-dimethyl-2-oxo-N-(2,4,6-trifluorobenzyl)indoline-6-carboxamide] | 1000 to 10000 | 1000 to 10000 | 1000 to 10000 | > 10 | > 10 |
| COc1cccc(F)c1CN1C(=O)C(C)(C)c2ccc(C(=O)NCc3c(F)cc(F)cc3F)cc21 [Example 102, 1-(2-fluoro-6-methoxybenzyl)-3,3-dimethyl-2-oxo-N-(2,4,6-trifluorobenzyl)indoline-6-carboxamide] | ≤ 1000 | ≤ 1000 | ≤ 1000 | ≤ 1 | ≤ 1 |
| Cc1cccc(F)c1CN1C(=O)C(C)(C)c2ccc(C(=O)NCc3c(F)cc(F)cc3F)cc21 [Example 103, 1-(2-fluoro-6-methylbenzyl)-3,3-dimethyl-2-oxo-N-(2,4,6-trifluorobenzyl)indoline-6-carboxamide] | ≤ 1000 | ≤ 1000 | ≤ 1000 | 1 to 10 | 1 to 10 |
| COc1cccc(CN2C(=O)C(C)(C)c3ccc(C(=O)NCc4c(F)cc(F)cc4F)cc32)c1F [Example 104, 1-(2-fluoro-3-methoxybenzyl)-3,3-dimethyl-2-oxo-N-(2,4,6-trifluorobenzyl)indoline-6-carboxamide] | 1000 to 10000 | 1000 to 10000 | 1000 to 10000 | > 10 | > 10 |

More lines, now with the values ahead:

| EC50 (WT/R232 STING protein) [nM] | EC50 (hSTING (H232)) [nM] | EC50 (hSTING (HAQ)) [nM] | EC50 (IRF pathway) [µM] | EC50 (NF-κB pathway) [µM] | SMILES |
| --- | --- | --- | --- | --- | --- |
| ≤ 1000 | ≤ 1000 | ≤ 1000 | 1 to 10 | 1 to 10 | Cc1nn(C)c(CN2C(=O)C(C)(C)c3ccc(C(=O)NCc4c(F)cc(F)cc4F)cc32)c1Br [Example 106, 1-((4-bromo-1,3-dimethyl-1H-pyrazol-5-yl)methyl)-3,3-dimethyl-2-oxo-N-(2,4,6-trifluorobenzyl)indoline-6-carboxamide] |
| ≤ 1000 | 1000 to 10000 | 1000 to 10000 | 1 to 10 | 1 to 10 | Cc1cc(CN2C(=O)C(C)(C)c3ccc(C(=O)NCc4cc5ccccc5o4)cc32)n(C)n1 [Example 107, N-(benzofuran-2-ylmethyl)-1-((1,3-dimethyl-1H-pyrazol-5-yl)methyl)-3,3-dimethyl-2-oxoindoline-6-carboxamide] |
| ≤ 1000 | > 10000 | > 10000 | > 10 | > 10 | CC1(C)C(=O)N(Cc2c(F)cccc2Br)c2cc(C(=O)NCc3c(F)cc(F)cc3F)ccc21 [Example 108, 1-(2-bromo-6-fluorobenzyl)-3,3-dimethyl-2-oxo-N-(2,4,6-trifluorobenzyl)indoline-6-carboxamide] |
| ≤ 1000 | ≤ 1000 | ≤ 1000 | 1 to 10 | 1 to 10 | CC1(C)C(=O)N(Cc2c(F)cccc2F)c2cc(C(=O)NCc3c(F)cc(F)cc3F)ccc21 [Example 109, 1-(2,6-difluorobenzyl)-3,3-dimethyl-2-oxo-N-(2,4,6-trifluorobenzyl)indoline-6-carboxamide] |
| ≤ 1000 | ≤ 1000 | ≤ 1000 | 1 to 10 | 1 to 10 | CC1(C)C(=O)N(Cc2c(F)cccc2OC(F)F)c2cc(C(=O)NCc3c(F)cc(F)cc3F)ccc21 [Example 111, 1-(2-(difluoromethoxy)-6-fluorobenzyl)-3,3-dimethyl-2-oxo-N-(2,4,6-trifluorobenzyl)indoline-6-carboxamide] |
| ≤ 1000 | ≤ 1000 | ≤ 1000 | 1 to 10 | 1 to 10 | Cc1nn(C)c(CN2C(=O)C(C)(C)c3ccc(C(=O)NCc4cc5ccccc5o4)cc32)c1Br [Example 112, N-(benzofuran-2-ylmethyl)-1-((4-bromo-1,3-dimethyl-1H-pyrazol-5-yl)methyl)-3,3-dimethyl-2-oxoindoline-6-carboxamide] |
| ≤ 1000 | ≤ 1000 | ≤ 1000 | 1 to 10 | 1 to 10 | Cc1nn(C)c(CN2C(=O)C(C)(C)c3ccc(C(=O)NCc4cc5cc(F)c(F)cc5o4)cc32)c1F [Example 114, N-((5,6-difluorobenzofuran-2-yl)methyl)-1-((4-fluoro-1,3-dimethyl-1H-pyrazol-5-yl)methyl)-3,3-dimethyl-2-oxoindoline-6-carboxamide] |
| ≤ 1000 | ≤ 1000 | ≤ 1000 | 1 to 10 | 1 to 10 | Cc1nn(C)c(CN2C(=O)C(C)(C)c3ccc(C(=O)NCc4cc5cc(F)ccc5o4)cc32)c1F [Example 115, 1-((4-fluoro-1,3-dimethyl-1H-pyrazol-5-yl)methyl)-N-((5-fluorobenzofuran-2-yl)methyl)-3,3-dimethyl-2-oxoindoline-6-carboxamide] |
| ≤ 1000 | ≤ 1000 | ≤ 1000 | 1 to 10 | 1 to 10 | CCn1nc(C)cc1CN1C(=O)C(C)(C)c2ccc(C(=O)NCc3cc4cc(F)ccc4o3)cc21 [Example 116, 1-((1-ethyl-3-methyl-1H-pyrazol-5-yl)methyl)-N-((5-fluorobenzofuran-2-yl)methyl)-3,3-dimethyl-2-oxoindoline-6-carboxamide] |
| ≤ 1000 | 1000 to 10000 | 1000 to 10000 | 1 to 10 | 1 to 10 | CCn1nc(C)cc1CN1C(=O)C(C)(C)c2ccc(C(=O)NCc3c(F)cc(F)cc3F)cc21 [Example 117, 1-((1-ethyl-3-methyl-1H-pyrazol-5-yl)methyl)-3,3-dimethyl-2-oxo-N-(2,4,6-trifluorobenzyl)indoline-6-carboxamide] |
| ≤ 1000 | 1000 to 10000 | 1000 to 10000 | > 10 | > 10 | COCCn1nc(C)c(F)c1CN1C(=O)C(C)(C)c2ccc(C(=O)NCc3cc4cc(F)ccc4o3)cc21 [Example 118, 1-((4-fluoro-1-(2-methoxyethyl)-3-methyl-1H-pyrazol-5-yl)methyl)-N-((5-fluorobenzofuran-2-yl)methyl)-3,3-dimethyl-2-oxoindoline-6-carboxamide] |
